# Data reported in patent publication US5583142A, “Analgesic and nootropic drugs” (priority 1992, dated 1996).
# Assay type: in vivo, mouse
# Details: max. dose not affecting mice behaviour
# Experimental: The analgesic action was detected in mouse, rat, guinea pig and dog. The mouse was subjected to hot plate and writhing tests; the rat to tail-flick and paw-pressure tests; the guinea pig to paw-pressure test only; the dog to the test described by Vainio et al. [J. Vet. Pharmacol. Ther., 12, 225-231 (1989)] using an electric stimulation. Consequently, the claimed compounds were tested with pain being induced by stimuli of different nature: thermal (hot plate and tail flick), chemical (writhing by acetic acid), mechanical (paw pressure) and electrical (cutaneous stimulation).
# Potency, efficacy and toxicity of SM21, PG9 and SM32 in comparison with
# four principal reference analgesic drugs tested in mouse. As analgesic
row,SMILES,"ANALGESIC ACTIVITY (degree of analgesia, latency on hot plate)"
1,CCC(Oc1ccc2cc(Br)ccc2c1)C(=O)OC1CC2CCC(C1)N2C (centres unmarked) [AC31],"+ (Latency under or equal to 25"" +-)"
2,Cc1ccc(SC(C)C(=O)OC2CC3CCC(C2)N3C)cc1 (centres unmarked) [SS21],"+ (Latency under or equal to 25"" +-)"
3,"CC(Sc1ccc(Cl)cc1)C(=O)OC1CC2CCC(C1)N2C (single isomer, unassigned) [(R) SS20 (+)]","+++ (Latency under or equal to 35"" +++-)"
4,"CC(Sc1ccc(Cl)cc1)C(=O)OC1CC2CCC(C1)N2C (single isomer, unassigned) [(S) SS20 (+)]","++ (Latency under or equal to 30"" ++-)"
5,CC(C(=O)OC1CC2CCC(C1)N2C)c1ccc(F)cc1 (centres unmarked) [PG21],"+++ (Latency under or equal to 35"" +++-)"
6,"CC(Oc1ccc(F)cc1)C(=O)OC1CC2CCC(C1)N2C (single isomer, unassigned) [(R) NR100 (+)]","++++ (Latency above 35"" ++++-)"
7,"CC(Nc1ccc(Cl)cc1)C(=O)OC1CC2CCC(C1)N2C (stereo not drawn) [AC5, 3α-Tropanyl 2-(p-chlorophenylamino)-propionate]","+ (Latency under or equal to 25"" +-)"
8,CC(C(=O)OC1CC2CCC(C1)N2C)c1ccccc1Br (centres unmarked) [PG23],"++ (Latency under or equal to 30"" ++-)"
9,CSc1ccc(OC(C)C(=O)O[C@H]2C[C@H]3CC[C@@H](C2)N3C)cc1 (some centres unmarked) [NR95],"+ (Latency under or equal to 25"" +-)"
10,CC(C(=O)OC1CC2CCC(C1)N2C)c1ccc(N)cc1 (centres unmarked) [PG5],"+ (Latency under or equal to 25"" +-)"
11,CC(Sc1ccccc1)C(=O)OC1CC2CCC(C1)N2C (centres unmarked) [SS12],"++ (Latency under or equal to 30"" ++-)"
12,CCC(C(=O)OC1CC2CCC(C1)N2C)c1ccc(Br)cc1 (centres unmarked) [PG24],"+++ (Latency under or equal to 35"" +++-)"
13,"CCC(Sc1ccc(Cl)cc1)C(=O)OC1CC2CCC(C1)N2C (single isomer, unassigned) [(S) SM35 (-), 3α-Tropanyl 2-(p-chlorophenylthio)butyrate]","++ (Latency under or equal to 30"" ++-)"
14,"CC(Oc1ccc(Cl)cc1)C(=O)OC1CC2CCC(C1)N2C (single isomer, unassigned) [(S) ET142 (-)]","++ (Latency under or equal to 30"" ++-)"
15,CC(C(=O)OC1CC2CCC(C1)N2C)c1ccc([N+](=O)[O-])cc1 (centres unmarked) [PG4],"+ (Latency under or equal to 25"" +-)"
16,CC(Oc1ccc(Br)cc1)C(=O)O[C@H]1C[C@H]2CC[C@@H](C1)N2C (some centres unmarked) [SM15],"++ (Latency under or equal to 30"" ++-)"
17,"CC(Oc1ccc2ccccc2c1)C(=O)O[C@H]1C[C@H]2CC[C@@H](C1)N2C (stereo partly drawn) [AC-19, 3α-Tropanyl 2-(β-naphthoxy)propionate]","+++ (Latency under or equal to 35"" +++-)"
18,CC(Oc1ccc(Cl)c(Cl)c1)C(=O)OC1CC2CCC(C1)N2C (centres unmarked) [SS10],"+ (Latency under or equal to 25"" +-)"
19,"CCC(Sc1ccc(Cl)cc1)C(=O)O[C@H]1C[C@H]2CC[C@@H](C1)N2C (stereo partly drawn) [SM-35, 3α-Tropanyl 2-(p-chlorophenylthio)-butyrate]","+++ (Latency under or equal to 35"" +++-)"
20,COc1ccc(C(C)C(=O)OC2CC3CCC(C2)N3C)cc1 (centres unmarked) [PG18],"+ (Latency under or equal to 25"" +-)"
21,CCC(C(=O)OC1CC2CCC(C1)N2C)N(C)c1ccc(Cl)cc1 (centres unmarked) [AC13],"++++ (Latency above 35"" ++++-)"
22,CCN1C2CCC1CC(OC(=O)C(C)Oc1ccc(Cl)cc1)C2 (centres unmarked) [GC9],"++ (Latency under or equal to 30"" ++-)"

row,SMILES,"ANALGESIC ACTIVITY (degree of analgesia, latency on hot plate)"
1,"CCC(Oc1ccc(Cl)cc1)C(=O)O[C@H]1C[C@H]2CC[C@@H](C1)N2CC (stereo partly drawn) [GC-11, N-Ethyl-3α-nortropanyl 2-(p-chlopophenoxy)butyrate]","++ (Latency under or equal to 30"" ++-)"
2,"CCC(Sc1ccc(Cl)cc1)C(=O)OC1CC2CCC(C1)N2C (single isomer, unassigned) [(R) SM35 (+), 3α-Tropanyl 2-(p-chlorophenylthio)butyrate]","+++ (Latency under or equal to 35"" +++-)"
3,CC(Sc1ccc(F)cc1)C(=O)OC1CC2CCC(C1)N2C (centres unmarked) [SM23],"++ (Latency under or equal to 30"" ++-)"
4,CC(Sc1ccc(Br)cc1)C(=O)OC1CC2CCC(C1)N2C (centres unmarked) [SM17],"++++ (Latency above 35"" ++++-)"
5,"CC(Sc1ccc(Cl)cc1)C(=O)O[C@H]1C[C@H]2CC[C@@H](C1)N2C (stereo partly drawn) [SS-20, 3α-Tropanyl 2-(p-chlorophenylthio)propionate]","+++ (Latency under or equal to 35"" +++-)"
6,"CC(C(=O)O[C@H]1C[C@H]2CC[C@@H](C1)N2C)c1ccc(Cl)cc1 (stereo partly drawn) [PG-8, 3α-Tropanyl 2-(p-chlorophenyl)-propionate]","+++ (Latency under or equal to 35"" +++-)"
7,CC(C)Cc1ccc(C(C)C(=O)OC2CC3CCC(C2)N3C)cc1 (centres unmarked) [PG16],"+ (Latency under or equal to 25"" +-)"
8,CC(Oc1cccc(Cl)c1)C(=O)OC1CC2CCC(C1)N2C (centres unmarked) [SM12],"++ (Latency under or equal to 30"" ++-)"
9,"CC(Oc1ccc(F)cc1)C(=O)OC1CC2CCC(C1)N2C (single isomer, unassigned) [(S) NR100 (-)]","+++ (Latency under or equal to 35"" +++-)"
10,CC(Oc1ccc(C#N)cc1)C(=O)O[C@H]1C[C@H]2CC[C@@H](C1)N2C (some centres unmarked) [SS26],"++ (Latency under or equal to 30"" ++-)"
11,"CC(Oc1ccc(Cl)cc1)C(=O)N[C@H]1C[C@H]2CC[C@@H](C1)N2C (stereo partly drawn) [SS-16, N-(3α-tropanyl)-2-(p-chlorophenoxy)-propionamide]","+ (Latency under or equal to 25"" +-)"
12,CCC(Oc1ccc(F)cc1)C(=O)OC1CC2CCC(C1)N2C (centres unmarked) [AC15],"++++ (Latency above 35"" ++++-)"
13,CC(C(=O)OC1CC2CCC(C1)N2C)c1cccc(Cl)c1 (centres unmarked) [PG13],"+++ (Latency under or equal to 35"" +++-)"
14,CC(C)C(Sc1ccc(Cl)cc1)C(=O)OC1CC2CCC(C1)N2C (centres unmarked) [AC11],"+ (Latency under or equal to 25"" +-)"
15,CC(Nc1ccccc1)C(=O)OC1CC2CCC(C1)N2C (centres unmarked) [SS29],"+++ (Latency under or equal to 35"" +++-)"
16,"CN1[C@@H]2CC[C@H]1C[C@@H](OC(=O)C(C)(C)Oc1ccc(Cl)cc1)C2 [SM-25, 3α-Tropanyl 2-(p-chlorophenoxy)-isobutyrate]","++ (Latency under or equal to 30"" ++-)"
17,CC(Oc1ccc(F)cc1)C(=O)O[C@H]1C[C@H]2CC[C@@H](C1)N2C (some centres unmarked) [NR100],"++++ (Latency above 35"" ++++-)"
18,CC(C(=O)OC1CC2CCC(C1)N2C)c1ccccc1Cl (centres unmarked) [PG14],"+++ (Latency under or equal to 35"" +++-)"
19,CC(Oc1ccc(C(F)(F)F)cc1)C(=O)O[C@H]1C[C@H]2CC[C@@H](C1)N2C (some centres unmarked) [SM19],"+ (Latency under or equal to 25"" +-)"
20,"CC(Oc1ccc(Cl)cc1)C(=O)OC1CC2CCC(C1)N2C (single isomer, unassigned) [(R) ET142 (+)]","+++ (Latency under or equal to 35"" +++-)"
21,"CC(C(=O)O[C@H]1C[C@H]2CC[C@@H](C1)N2C)N(C)c1ccc(Cl)cc1 (stereo partly drawn) [AC6, 3α-Tropanyl 2-[N-methyl-N(p-chlorophenyl)amino]-propionate]","++ (Latency under or equal to 30"" ++-)"

# Same assay, conditions: mouse; in μmoles/kg
row,SMILES,dose required to obtain analgesia equivalent to that of the claimed compounds
1,"CN1CC[C@]23c4c5ccc(O)c4O[C@H]2[C@@H](O)C=C[C@H]3[C@H]1C5.Cl [Morphine HCl, reference compound]",three times lower
